# Reference: patent US20240158339A1, “TYRAMINE CONTAINING HYDROXYCINNAMIC ACID AMIDE DERIVATIVES AND METHODS OF USE THEREOF” (Brightseed, Inc., priority 2018, published 2024)
# “Also recorded” adds a separate entry of the source.
# Legend:
# HNF4α = molecular target: T1, HNF4α (Homo sapiens, UniProt P41235); assay: Insulin promoter activity assay (HNF4α assay) in T6PNE cells; format: cell-based; settings: for HNF4α activation / bioactivity (screening result in words): HNF4α assay, screening and SAR statements
# T1 construct: T6PNE cells (Kiselyuk, et al. (2012) Chem. Biol. 19(7):806-818; Kiselyuk, et al. (2010) J. Biomol; endogenous in cells; host or cells: T6PNE cells
# T1 sequence (P41235 1-474): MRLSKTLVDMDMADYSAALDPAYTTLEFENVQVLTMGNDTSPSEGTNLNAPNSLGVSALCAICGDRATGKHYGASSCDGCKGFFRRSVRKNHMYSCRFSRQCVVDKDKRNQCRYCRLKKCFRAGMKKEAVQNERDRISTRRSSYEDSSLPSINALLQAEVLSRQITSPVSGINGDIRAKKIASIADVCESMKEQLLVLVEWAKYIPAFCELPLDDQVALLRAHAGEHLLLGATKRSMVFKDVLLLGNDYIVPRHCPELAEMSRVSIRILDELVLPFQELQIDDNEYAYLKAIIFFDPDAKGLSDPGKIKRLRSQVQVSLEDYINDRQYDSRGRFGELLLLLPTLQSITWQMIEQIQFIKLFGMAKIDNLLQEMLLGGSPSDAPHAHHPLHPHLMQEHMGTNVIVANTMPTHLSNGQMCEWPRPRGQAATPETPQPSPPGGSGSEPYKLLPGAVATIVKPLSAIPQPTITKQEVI
# Procedure: Insulin Promoter Activity. T6PNE cells (Kiselyuk, et al. (2012) Chem. Biol. 19(7):806-818; Kiselyuk, et al. (2010) J. Biomol. Screen 15(6):663-70) are seeded at 2000 cells per well in 384-well tissue culture plates in the presence of 1 μM tamoxifen and 0.03 mM palmitate. After a 24-hour incubation, a compound of the invention is added to the cells. Forty-eight hours after compound addition, cells are fixed in 4% paraformaldehyde and stained with DAPI. Blue (DAPI) and green (human insulin promoter driving GFP) channels are imaged.
# Inhibition of HNF4α GFP Expression. Using the insulin promoter assay described herein, activity of HNF4α was assessed in the presence of BI-6015 (0, 2.5, 5 μM), a known antagonist of HNF4α (Kiselyuk, et al. (2012) Chem. Biol. 19(7):806-818), in combination with N-trans-caffeoyltyramine (0, 5, 10, 20 μM).
# Given the role of HNF4α in maintaining a health metabolism in humans, test compounds were screened for activity as HNF4α agonists (either direct or indirect effects). Using a known insulin promoter-reporter assay Kiselyuk and colleagues (2010. J. Biomol. Screen 15(6):663-70) screened a library of compounds for activity to promote insulin activation. […] The OTC promoter is known to be responsive to HNF4α in transient transfection assays (Inoue, et al. (2002) J. Biol. Chem. 277:25257-65).
# Plant compounds in the top 10th percentile of similarity to the 18 target structures were selected and compounds predicted to be potential agonists of HNF4α activity given their chemical structural features were screened in the HNF4α assay.
# HNF4α mRNA = HNF4α mRNA levels by quantitative PCR; format: cell-based; settings: FIG. 3
# Procedure: (§1) Expression of Insulin and HNF4α. RNA was purified using a RNEASY® chromatographic separation and isolation kits (Qiagen), and converted to cDNA using the gScript™ cDNA SuperMix (Quanta Biosciences). Q-PCR was conducted with cDNA corresponding to 2 μg of RNA using an Opticon Real-Time System (MJ Research) and QPCR SuperMix (BioPioneer). See All mRNA values were normalized to 18S rRNA values and are expressed as fold changes over vehicle-treated control.
# insulin mRNA = assay: Insulin mRNA levels by quantitative PCR; format: cell-based; settings: FIG. 2
# Procedure: as §1
# T6PNE cells = assay: Lipid clearance (steatosis assay) in T6PNE cells; format: cell-based; settings: for fat accumulation: T6PNE cells, 0.25 mM palmitate, 10 μM compound
# Procedure: T6PNE cells were pretreated for 1 day with 0.06 mM, 0.12 mM or 0.25 mM palmitate at which time 15 μM N-trans-caffeoyltyramine or control (DMSO) was added. Cells were harvested on day 3, 6 and 8 and subjected to staining with Nile Red and […]. Results are expressed as fold change in Nile Red staining: +palmitate/10% FBS medium (no palmitate).
# (§2) Lipid Clearance in HepG2 and T6PNE Cells (Steatosis Assay). The steatosis assay was carried out as described (Kiselyuk, et al. (2012) Chem. Biol. 19(7):806-818) with the exception of the drug concentration, which was 20 μM for N-trans-caffeoyltyramine with 0.25 mM palmitate in HepG2 cell lines, and 10 μM of either N-trans-caffeoyltyramine, N-trans-caffeoyltyramine, or p-coumaroyltyramine, with 0.25 mM palmitate in T6PNE cell lines. Steatosis was assessed using the Oil Red O Method for Fats kits (Poly Scientific; Warrington, PA), per manufacturer's guidelines. Briefly, frozen tissue slides or fixed cells were incubated in neat propylene glycol for 2 minutes and Oil Red O solution for […] for slides or 1 hour for fixed cells, differentiated in 85% propylene glycol solution for 1 minute, washed twice with distilled water and stained in Hematoxylin of 10 seconds. Slides were mounted with glycerin jelly mounting medium.
# HepG2 cells = assay: Lipid clearance (steatosis assay) in HepG2 cells; format: cell-based; settings: HepG2 liver cells, 20 μM
# Procedure: as §2
# E47MER = assay: Counter-screen for estrogenic activity (E47MER luciferase reporter in HeLa cells); format: cell-based, human; settings: with 1 μM or without tamoxifen, FIG. 5
# Procedure: Counter-Screen for Estrogenic Activity. Estrogenic activity was monitored by co-transfection of a reporter plasmid containing a multimerized E-box 5′ of a minimal promoter fused to the Firefly luciferase gene with wild-type E47 or E47MER (Kiselyuk, et al. (2010) J. Biomol. Screen 15(6):663-70). HeLa cells were transfected using polyethylenimine, 0.2 μg 4RTK-Luc plasmid and either 0.3 μg of human E47, E47MER or pMSCVhph vector in 50 μl of serum-free Dulbecco's modification of Eagle medium per well. Transfections included Renilla luciferase (pRL-TK) plasmid as a control for transfection efficacy. Transfection conditions were as described in the PPRE-Luc reporter assay of Kiselyuk, et al. ((2010) J. Biomol. Screen 15(6):663-70). Sixteen hours after transfection, culture media were changed and maintained for 48 hours with tamoxifen and/or compound or vehicle (DMSO). Cells were then lysed and assayed for luciferase activity using the Promega DUAL-LUCIFERASE® reporter assay kit (Promega Corp., Madison, WI), and luminescence was measured using the Veritas™ Microplate Luminometer (Turner Biosystems, Sunnyvale, CA). Data were normalized to Renilla luciferase (pRL-TK) and expressed as fold-change over vehicle alone.
# pH stability assessment = format: physicochemical; settings: pH 2, 7.4, 8.5 and 10, 37° C., 0.5 vs 72 hours
# Procedure: pH Stability Assessment. Individual stock solutions were prepared in DMSO at concentrations of 10 mg/mL. Four different buffer solution s were prepared to achieve solutions with a pH of 2, 7.4, 8.5 and 10. For each pH assay, 5 μL of stock solution was added to 245 μL of buffered solution to a 2 mL tube, vortexed and incubated in a 37° C. water bath. At each timepoint, 50 μL aliquots were taken, neutralized and analyzed via HPLC analysis using a DAD detector at 280 nm. The fold change of the peak area at 280 nm was analyzed for the initial and final timepoint, 0.5 and 72 hours, respectively.
# [1] = Bioavailability determination in male C57BL/6 mice; settings: IV 2 mg/kg vs oral or IP 30 mg/kg, route not stated in Table 3
SMILES,HNF4α activation / bioactivity (screening result in words) (HNF4α),HNF4α gene expression (HNF4α mRNA),insulin gene expression (insulin mRNA),further results
"O=C(C=CCCc1ccccc1)CCc1ccccc1 [1,7-diphenylhept-4-en-3-one]",complete loss of bioactivity,,,
"Cc1ccc([N+](=O)[O-])cc1S(=O)(=O)n1c(C)nc2ccccc21 [BI-6015, reference compound]",,,,"effect on N-trans-caffeoyltyramine-mediated increases in insulin expression (HNF4α; BI-6015 0, 2.5, 5 μM with N-trans-caffeoyltyramine 0, 5, 10, 20 μM, FIG. 4): inhibited"
COc1cc(/C=C/C(=O)NCCc2ccc(O)cc2)ccc1O [N-trans-feruloyltyramine],able to act as HNF4α modulators; also recorded: reduces but does not eradicate bioactivity,upregulated,upregulated,"lipid accumulation when palmitate was added prior to compound (T6PNE cells; T6PNE cells pretreated 1 day with 0.06-0.25 mM palmitate, 15 μM compound, Nile Red, FIG. 6): can reverse fat accumulation; fat accumulation (T6PNE cells): inhibition of fat accumulation; clearing of fats, Oil Red O staining (HepG2 cells): capable of clearing harmful fats from the liver; accumulation of fats (HepG2 cells; 0.25 mM palmitate): inhibited accumulation of fats; estrogenic activity (E47MER): did not exhibit estrogenic activity; pH Stability (pH stability assessment): Stable; bioavailability [1]: ~7%"
O=C(/C=C/c1ccc(O)cc1)NCC(O)c1ccc(O)cc1 (centres unmarked) [p-coumaroyloctopamine],,inactive,inactive,
O=C(/C=C/c1ccc(O)cc1)NCCc1ccc(O)cc1 [p-coumaroyltyramine],able to act as HNF4α modulators,upregulated,upregulated,HNF4α activation / bioactivity (screening result in words) (HNF4α; listed as N-trans-coumaroyltyramine): additional reduction but not eradication of bioactivity; fat accumulation (T6PNE cells): inhibition of fat accumulation

# More lines, main results first:
HNF4α activation / bioactivity (screening result in words) (HNF4α),SMILES,HNF4α gene expression (HNF4α mRNA),insulin gene expression (insulin mRNA),further results
complete loss of bioactivity,O=C(C=Cc1ccccc1)NCCc1ccccc1 [N-2-phenylethylcinnamide],,,
complete loss of HNF4α activation,O=C(/C=C/c1ccc(O)cc1)NCCc1ccc(O)c(O)c1 [N-coumaroyldopamine],inactive,inactive,
complete loss of HNF4α activation,COc1cc(/C=C/C(=O)NCC(O)c2ccc(O)cc2)ccc1O (stereo not drawn) [N-trans-feruloyloctopamine],inactive,inactive,
complete loss of HNF4α activation,COc1cc(/C=C\C(=O)NCCc2ccc(O)cc2)ccc1O [cis-feruloyltyramine],inactive,inactive,
